These compounds were tested against T1, indoleamine 2, 3-dioxygenase (IDO1) (Homo sapiens, UniProt P14902) (assay: PBMC IDO1 assay (kynurenine detection via mass spectrometry)). Settings: human PBMC stimulated with IFN-γ and LPS, 2 days, kynurenine by mass spectrometry; read-out: IDO1 PBMC pIC50 (converted).
T1 construct: human peripheral blood mononuclear cells (PBMC) (PB003F; host or cells: human PBMC stimulated with IFN-gamma and LPS
Type: cell-based
Experimental: Compounds of the present invention were tested via high-throughput cellular assays utilizing detection of kynurenine via mass spectrometry and cytotoxicity as end-points. For the mass spectrometry and cytotoxicity assays, human peripheral blood mononuclear cells (PBMC) (PB003F; AIICells®, Alameda, Calif.) were stimulated with human interferon-γ (IFN-γ) (Sigma-Aldrich Corporation, St. Louis, Mo.) and lipopolysaccharide from Salmonella minnesota (LPS) (Invivogen, San Diego, Calif.) to induce the expression of indoleamine 2, 3-dioxygenase (IDO1). Compounds with IDO1 inhibitory properties decreased the amount of kynurenine produced by the cells via the tryptophan catabolic pathway. Cellular toxicity due to the effect of compound treatment was measured using CellTiter-Glo® reagent (CTG) (Promega Corporation, Madison, Wis.), which is based on luminescent detection of ATP, an indicator of metabolically active cells.
In preparation for the assays, test compounds were serially diluted 3-fold in DMSO from a typical top concentration of 5 mM and plated at 0.5 μL in 384-well, polystyrene, clear bottom, tissue culture treated plates with lids (Greiner Bio-One, Kremsmunster, Austria) to generate 11-point dose response curves. Low control wells (0% kynurenine or 100% cytotoxicity) contained either 0.5 μL of DMSO in the presence of unstimulated (-IFN-γ/-LPS) PBMCs for the mass spectrometry assay or 0.5 μL of DMSO in the absence of cells for the cytotoxicity assay, and high control wells (100% kynurenine or 0% cytotoxicity) contained 0.5 μL of DMSO in the presence of stimulated (+IFN-γ/+LPS) PBMCs for both the mass spectrometry and cytotoxicity assays.
Frozen stocks of PBMCs were washed and recovered in RPMI 1640 medium (Thermo Fisher Scientific, Inc., Waltham, Mass.) supplemented with 10% v/v heat-inactivated fetal bovine serum (FBS) (Thermo Fisher Scientific, Inc., Waltham, Mass.), and 1× penicillin-streptomycin antibiotic solution (Thermo Fisher Scientific, Inc., Waltham, Mass.). The cells were diluted to 1,000,000 cells/mL in the supplemented RPMI 1640 medium. 50 μL of either the cell suspension, for the mass spectrometry assay, or medium alone, for the cytotoxicity assay, were added to the low control wells, on the previously prepared 384-well compound plates, resulting in 50,000 cells/well or 0 cells/well respectively. IFN-γ and LPS were added to the remaining cell suspension at final concentrations of 100 ng/ml and 50 ng/ml respectively, and 50 μL of the stimulated cells were added to all remaining wells on the 384-well compound plates. The plates, with lids, were then placed in a 37° C., 5% CO2 humidified incubator for 2 days.
Following incubation, the 384-well plates were removed from the incubator and allowed to equilibrate to room temperature for 30 minutes. For the cytotoxicity assay, CellTiter-Glo® was prepared according to the manufacturer's instructions, and 40 μL were added to each plate well. After a twenty minute incubation at room temperature, luminescence was read on an EnVision® Multilabel Reader (PerkinElmer Inc., Waltham, Mass.). For the mass spectrometry assay, 10 μL of supernatant from each well of the compound-treated plates were added to 40 μL of acetonitrile, containing 10 μM of an internal standard for normalization, in 384-well, polypropylene, V-bottom plates (Greiner Bio-One, Kremsmunster, Austria) to extract the organic analytes. Following centrifugation at 2000 rpm for 10 minutes, 10 μL from each well of the acetonitrile extraction plates were added to 90 μL of sterile, distilled H2O in 384-well, polypropylene, V-bottom plates for analysis of kynurenine and the internal standard on the RapidFire 300 (Agilent Technologies, Santa Clara, Calif.) and 4000 QTRAP MS (SCIEX, Framingham, Mass.). MS data were integrated using Agilent Technologies' RapidFire Integrator software, and data were normalized for analysis as a ratio of kynurenine to the internal standard. […]

T1 sequence (P14902 whole entry): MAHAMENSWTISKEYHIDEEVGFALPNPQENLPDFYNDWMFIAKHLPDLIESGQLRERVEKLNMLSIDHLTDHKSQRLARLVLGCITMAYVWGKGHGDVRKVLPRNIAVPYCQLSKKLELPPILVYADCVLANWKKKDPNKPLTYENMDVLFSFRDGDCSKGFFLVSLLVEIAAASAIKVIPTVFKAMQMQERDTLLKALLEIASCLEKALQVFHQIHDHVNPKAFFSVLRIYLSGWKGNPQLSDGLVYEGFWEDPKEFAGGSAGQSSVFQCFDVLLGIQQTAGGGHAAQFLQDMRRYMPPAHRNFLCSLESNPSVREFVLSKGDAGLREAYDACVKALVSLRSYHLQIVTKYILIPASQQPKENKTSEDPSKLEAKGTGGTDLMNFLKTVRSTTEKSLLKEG

Row | IC50 [nM] | Compound
1 | 1.58 | COc1ccc([C@H](CC2CCN(C(=O)OC(C)(C)C)CC2)NC(=O)c2ccc(Br)s2)cn1 [Example 29, tert-butyl (S)-4-(2-(5-bromothiophene-2-carboxamido)-2-(6-methoxypyridin-3-yl)ethyl)piperidine-1-carboxylate]
2 | 10 | CCc1ccc(C(=O)N[C@@H](CC2CCN(C(=O)OC(C)(C)C)CC2)c2ccccc2)s1 [Example 30, tert-butyl (S)-4-(2-(5-ethylthiophene-2-carboxamido)-2-phenylethyl)piperidine-1-carboxylate]
3 | 7.94 | CC(C)(C)OC(=O)N1CCC(CC(NC(=O)c2ccc(Br)s2)C2CCCCC2)CC1 (stereo not shown) [Example 31, tert-butyl 4-(2-(5-bromothiophene-2-carboxamido)-2-cyclohexylethyl)piperidine-1-carboxylate]
4 | 10 | CC(C)OC(=O)N1CCC(C[C@H](NC(=O)c2ccc(Cl)cc2)c2ccccc2)CC1 [Example 32, isopropyl (S)-4-(2-(4-chlorobenzamido)-2-phenylethyl)piperidine-1-carboxylate]
5 | 7.94 | CCc1ccc(C(=O)N[C@@H](CC2CCN(C(=O)OC(C)C)CC2)c2ccccc2)s1 [Example 33, isopropyl (S)-4-(2-(5-ethylthiophene-2-carboxamido)-2-phenylethyl)piperidine-1-carboxylate]
6 | 3.98 | C=CC[C@H](CC1CCN(C(=O)OC(C)(C)C)CC1)NC(=O)c1ccc(Cl)s1 [Example 34, tert-butyl (R)-4-(2-(5-chlorothiophene-2-carboxamido)pent-4-en-1-yl)piperidine-1-carboxylate]
7 | 6.31 | CC(C)CC(CC1CCN(C(=O)Oc2ccccc2)CC1)NC(=O)c1ccc(Cl)s1 (stereo not shown) [Example 35, phenyl 4-(2-(5-chlorothiophene-2-carboxamido)-4-methylpentyl)piperidine-1-carboxylate]
8 | 1.58 | COc1ccc([C@H](CC2CCN(C(=O)Oc3ccccc3)CC2)NC(=O)c2ccc(Cl)s2)cn1 [Example 36, phenyl (S)-4-(2-(5-chlorothiophene-2-carboxamido)-2-(6-methoxypyridin-3-yl)ethyl)piperidine-1-carboxylate]
9 | 2.51 | COc1ccc([C@H](CC2CCN(C(=O)Oc3ccccc3)CC2)NC(=O)c2ccc(Cl)cc2)cn1 [Example 37, phenyl (S)-4-(2-(4-chlorobenzamido)-2-(6-methoxypyridin-3-yl)ethyl)piperidine-1-carboxylate]
10 | 5.01 | C[C@H](CC1CCN(C(=O)OC(C)(C)C)CC1)NC(=O)c1ccc(Cl)s1 [Example 38, tert-butyl (R)-4-(2-(5-chlorothiophene-2-carboxamido)propyl)piperidine-1-carboxylate]
11 | 5.01 | COc1ccc([C@H](CC2CCN(C(=O)CC(C)(C)C)CC2)NC(=O)c2ccc(Cl)s2)cn1 [Example 39, (S)-5-chloro-N-(2-(1-(3,3-dimethylbutanoyl)piperidin-4-yl)-1-(6-methoxypyridin-3-yl)ethyl)thiophene-2-carboxamide]
12 | 3.98 | COc1ccc([C@H](CC2CCN(C(=O)NC(C)(C)C)CC2)NC(=O)c2ccc(Cl)s2)cn1 [Example 40, (S)-N-(tert-butyl)-4-(2-(5-chlorothiophene-2-carboxamido)-2-(6-methoxypyridin-3-yl)ethyl)piperidine-1-carboxamide]
13 | 3.98 | COc1ccc([C@H](CC2CCN(S(=O)(=O)CC(C)C)CC2)NC(=O)c2ccc(Cl)s2)cn1 [Example 41, (S)-5-chloro-N-(2-(1-(isobutylsulfonyl)piperidin-4-yl)-1-(6-methoxypyridin-3-yl)ethyl)thiophene-2-carboxamide]
14 | 5.01 | C[C@H](CC1CCN(C(=O)Oc2ccccc2)CC1)NC(=O)c1ccc(Cl)s1 [Example 42, phenyl (R)-4-(2-(5-chlorothiophene-2-carboxamido)propyl)piperidine-1-carboxylate]
15 | 1 | COc1ccc([C@H](CC2CCN(C(=O)C(F)(F)c3ccccc3)CC2)NC(=O)c2ccc(Cl)s2)cn1 [Example 43, (S)-5-chloro-N-(2-(1-(2,2-difluoro-2-phenylacetyl)piperidin-4-yl)-1-(6-methoxypyridin-3-yl)ethyl)thiophene-2-carboxamide]
16 | 3.16 | CCN(CC)c1nnc(C(CC2CCN(C(=O)OC(C)(C)C)CC2)NC(=O)c2ccc(Cl)s2)o1 (stereo not shown) [Example 44, tert-butyl 4-(2-(5-chlorothiophene-2-carboxamido)-2-(5-(diethylamino)-1,3,4-oxadiazol-2-yl)ethyl)piperidine-1-carboxylate]
17 | 3.16 | CCOC(=O)N1CCC(CC(NC(=O)c2ccc(Cl)s2)c2nnc(N(CC)CC)o2)CC1 (stereo not shown) [Example 45, ethyl 4-(2-(5-chlorothiophene-2-carboxamido)-2-(5-(diethylamino)-1,3,4-oxadiazol-2-yl)ethyl)piperidine-1-carboxylate]
18 | 3.98 | Cc1ccc(C(=O)NC(CC2CCN(C(=O)OC(C)(C)C)CC2)C(C)C)s1 (stereo not shown) [Example 46, tert-butyl 4-(3-methyl-2-(5-methylthiophene-2-carboxamido)butyl)piperidine-1-carboxylate]
19 | 3.98 | CCC(CC)c1nc(C(CC2CCN(C(=O)OC(C)(C)C)CC2)NC(=O)c2ccc(Cl)s2)no1 (stereo not shown) [Example 47, tert-butyl 4-(2-(5-chlorothiophene-2-carboxamido)-2-(5-(pentan-3-yl)-1,2,4-oxadiazol-3-yl)ethyl)piperidine-1-carboxylate]
20 | 3.98 | CCN(CC)c1nnc(C(CC2CCN(C(=O)OC(C)(C)C)CC2)NC(=O)c2ccc(C)s2)o1 (stereo not shown) [Example 48, tert-butyl 4-(2-(5-(diethylamino)-1,3,4-oxadiazol-2-yl)-2-(5-methylthiophene-2-carboxamido)ethyl)piperidine-1-carboxylate]
21 | 6.31 | CCc1ccc(C(=O)NC(CC2CCN(C(=O)OC(C)(C)C)CC2)C(C)C)s1 (stereo not shown) [Example 49, tert-butyl 4-(2-(5-ethylthiophene-2-carboxamido)-3-methylbutyl)piperidine-1-carboxylate]
22 | 6.31 | CCN(c1nnc(C(CC2CCN(C(=O)OC(C)(C)C)CC2)NC(=O)c2ccc(C)s2)o1)C1CC1 (stereo not shown) [Example 50, tert-butyl 4-(2-(5-(cyclopropyl(ethyl)amino)-1,3,4-oxadiazol-2-yl)-2-(5-methylthiophene-2-carboxamido)ethyl)piperidine-1-carboxylate]
23 | 7.94 | Cc1ccc(C(=O)NC(CC2CCN(C(=O)Oc3ccccc3)CC2)c2ccccc2)s1 (stereo not shown) [Example 51, phenyl 4-(2-(5-methylthiophene-2-carboxamido)-2-phenylethyl)piperidine-1-carboxylate]
24 | 10 | CCN(C)c1nnc(C(CC2CCN(C(=O)OC(C)(C)C)CC2)NC(=O)c2ccc(C)s2)o1 (stereo not shown) [Example 52, tert-butyl 4-(2-(5-(ethyl(methyl)amino)-1,3,4-oxadiazol-2-yl)-2-(5-methylthiophene-2-carboxamido)ethyl)piperidine-1-carboxylate]
25 | 3.16 | CCN(CC)c1nnc(C(CC2CCN(C(=O)Oc3ccccc3)CC2)NC(=O)c2ccc(Cl)s2)o1 (stereo not shown) [Example 53, phenyl 4-(2-(5-chlorothiophene-2-carboxamido)-2-(5-(diethylamino)-1,3,4-oxadiazol-2-yl)ethyl)piperidine-1-carboxylate]

— patent US20210078988A1, “MODULATORS OF INDOLEAMINE 2,3-DIOXYGENASE” (GLAXOSMITHKLINE INTELLECTUAL PROPERTY DEVELOPMENT LIMITED, priority 2017, published 2021)
